The results in this text go back to article PMC10786919, “Design-rules for stapled peptides with in vivo activity and their application to Mdm2/X antagonists” (Nature Communications, 2024).

Read-outs that look alike come from different tables or passages of the source. Starred links: 1 amine or outer side, 2 acyl side, 3 side chain; linkers in the order of their positions; H or OH if unused. Positions of bridges follow the written chain, without caps; N, C: chain ends. Non-standard residues stand in square brackets, D forms with d. Residues, ends and D or L forms follow the SMILES beside them. dR8(desαMe) = O=C([C@@H](CCCCCCC=[*:3])N[*:1])[*:2]; Nle(6-ylidene) = O=C([C@H](CCCC=[*:3])N[*:1])[*:2]; 2Nal = N[C@@H](Cc1ccc2ccccc2c1)C(=O)O; tBuAla = CC(C)(C)C[C@H](N)C(=O)O; R8 = C=CCCCCCC[C@@](C)(N)C(=O)O; R5 = C=CCCC[C@@](C)(N)C(=O)O; S5 = C=CCCC[C@](C)(N)C(=O)O; Aib = CC(C)(N)C(=O)O; Ahx = NCCCCCC(=O)O A value given as a limit tells only on which side of the number the result lay.

Common to all, as to format: cell-based
Series [1] relates to Jump-In T-REx CHO-K1 BLA cells. Put plainly: cells. The note with it: for EC50: read-out: TETCHO: Counterscreen EC50. As for the experimental part:
This assay was based on Jump-In™ T-REx™ CHO-K1 BLA cells containing a stably integrated β-lactamase under the control of an inducible cytomegalovirus (CMV) promoter. Cells were maintained in Dulbecco’s […] Eagle Medium (DMEM) with 10% fetal bovine serum (FBS), Blasticidin, and Penicillin/Streptomycin and then transferred to 1.5 ml freezing vials and stored under liquid nitrogen in growth media containing 5% DMSO. […] Cells were seeded into a 384-well plate at a density of 4000 cells per well. Peptides were then dispensed to each well using a liquid handler, ECHO 555 and incubated for 16 h. The final working concentration of DMSO was 0.5%. β-lactamase activity was detected using the ToxBLAzer Dual Screen (Invitrogen), as per the manufacturer’s instructions. Measurements were carried out using the Envision multiplate reader (Perkin–Elmer). Counterscreen activity was defined as the amount of β-lactamase activity induced by tetracycline. Measurements were taken a minimum of three times (biological replicates) and values are reported as geometric means of the replicates.

For series [2], the system named is p53 responsive β-lactamase reporter in HCT116 cells. Put plainly: cells. To be noted: read-out: p53 reporter assay EC50. As for the experimental part:
HCT116 cells were stably transfected with a p53 responsive β-lactamase reporter and expanded in McCoy’s 5 A Medium with 10% fetal bovine serum (FBS), Blasticidin, and Penicillin/Streptomycin and then transferred to 1.5 ml freezing vials and stored under liquid nitrogen in growth media containing 5% DMSO. […] The cells were then seeded into a 384-well plate at a density of 8000 cells per well. […] The final working concentration of DMSO was 0.5%. β-lactamase activity was detected using the ToxBLAzer Dual Screen (Invitrogen), as per the manufacturer’s instructions. Measurements were made using the Envision multiplate reader (Perkin–Elmer). […] Measurements were taken a minimum of three times (biological replicates) and values are reported as geometric means of the replicates.
Background: A reporter such as luciferase makes a cellular process visible.

The test system of another series is HCT116 cells. Put plainly: Lactate dehydrogenase (LDH) release assay. A digest of the protocol:
(§1)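 HCT116 cells stably carrying a p53-responsive β-lactamase reporter were seeded at 8000 cells per well with a final DMSO level of 0.5%. Membrane integrity was assessed by lactate dehydrogenase release using a homogeneous fluorometric kit. Values are geometric means of at least three biological replicates.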

Series [3] is described as follows: Lactate dehydrogenase (LDH) release assay. To be noted: LDH: Cytotoxicity assay EC50. A digest of the protocol: as §1

The term EC50 denotes the concentration at which the effect is half-maximal.

Turning to `CC(=O)N[C@H](C(=O)N[C@@H](CO)C(=O)N[C@@H](Cc1ccccc1)C(=O)N[C@]1(C)CCCC=CCCC[C@](C)(C(=O)N[C@@H](CC(C)C)C(=O)N[C@@H](CC(C)C)C(=O)N[C@@H](CO)C(=O)N[C@@H](CCC(=O)O)C(=O)N[C@@H](CC(N)=O)C(=O)N[C@@H](Cc2ccccc2)C(N)=O)NC(=O)[C@H](Cc2c[nH]c3ccccc23)NC(=O)[C@H](Cc2ccc(O)cc2)NC(=O)[C@H](CCC(=O)O)NC1=O)[C@@H](C)O` [MP-167] (Ac-TSF[R5]EYW[R5]LLSENF-NH2; staple 4-8), in series [1] (0% FBS 4Hr), the “TETCHO: Counterscreen % Effect” value turned out to be 22.82%. Also, the EC50 came to 12.1 µM in series [1] (0% FBS 4Hr), 8.78 µM in series [2] (0% FBS 4Hr) and 26 µM in series [3]. In addition, the “LDH: Cytotoxicity assay % Effect” value with HCT116 cells worked out at 34.73%.
For the compound `CC(=O)N[C@H](C(=O)N[C@@H](CO)C(=O)N[C@@H](Cc1ccccc1)C(=O)N[C@]1(C)CCCCCCC=CCCC[C@@](C)(C(=O)N[C@@H](CCC(=O)O)C(=O)N[C@@H](CC(N)=O)C(=O)N[C@@H](Cc2ccc(O)cc2)C(N)=O)NC(=O)[C@H](CC(C)C)NC(=O)[C@H](CC(C)C)NC(=O)[C@H](C)NC(=O)[C@H](Cc2c[nH]c3ccccc23)NC(=O)[C@H](Cc2ccc(O)cc2)NC(=O)[C@H](CCC(=O)O)NC1=O)[C@@H](C)O` [MP-1170], the “TETCHO: Counterscreen % Effect” value in series [1] (0% FBS 4Hr) amounted to 61.75%. For the same compound, the EC50 in series [1] (0% FBS 4Hr) was 36.8 µM; in series [2] (0% FBS 4Hr) it was 16.7 µM; in series [3], greater than 50 µM. Further, in the series with HCT116 cells, the “LDH: Cytotoxicity assay % Effect” value came to 6.762%.
For `CC(=O)N[C@H](C(=O)N[C@@H](CO)C(=O)N[C@@H](Cc1ccccc1)C(=O)NC(C)(C)C(=O)N[C@@H](CCC(=O)O)C(=O)N[C@@H](Cc1ccc(O)cc1)C(=O)N[C@@H](Cc1c[nH]c2ccccc12)C(=O)N[C@@H](C)C(=O)N[C@@H](CC(C)C)C(=O)N[C@@H](CC(C)(C)C)C(=O)NC(C)(C)C(N)=O)[C@@H](C)O` [MP-155] (Ac-TSF[Aib]EYWAL[tBuAla][Aib]-NH2), in that order: -0.6205%, greater than 50 µM, 12.4 µM, greater than 50 µM and -0.2131%.
Taken in the same sequence, the figures for `CC(=O)N[C@@H](CCCNC(=N)N)C(=O)N[C@@H](CCCNC(=N)N)C(=O)N[C@@H](CCCNC(=N)N)C(=O)NCCCCCC(=O)N[C@H](C(=O)N[C@@H](CO)C(=O)N[C@@H](Cc1ccccc1)C(=O)N[C@]1(C)CCCCCCC=CCCC[C@@](C)(C(N)=O)NC(=O)[C@H](CC(C)C)NC(=O)[C@H](CC(C)C)NC(=O)[C@H](C)NC(=O)[C@H](Cc2c[nH]c3ccccc23)NC(=O)[C@H](Cc2ccc(O)cc2)NC(=O)[C@H](CCC(=O)O)NC1=O)[C@@H](C)O` [MP-1177] were 50.69%, 17.6 µM, 8.42 µM, 31.8 µM and 51.96%.
Take `CC(=O)N[C@H](C(=O)N[C@@H](CO)C(=O)N[C@@H](Cc1ccccc1)C(=O)N[C@]1(C)CCCCCCC=CCCC[C@@](C)(C(N)=O)NC(=O)[C@H](CC(C)C)NC(=O)[C@H](CC(C)C)NC(=O)[C@H](C)NC(=O)[C@H](Cc2c[nH]c3ccccc23)NC(=O)[C@H](Cc2ccc(O)cc2)NC(=O)[C@H](CCC(N)=O)NC1=O)[C@@H](C)O` [MP-163] (Ac-TSF[R8]QYWALL[S5]-NH2; staple 4-11): the “TETCHO: Counterscreen % Effect” value in series [1] (0% FBS 4Hr) came to 21.33%. In addition, the EC50 in series [1] (0% FBS 4Hr) is greater than 50 µM; in series [2] (0% FBS 4Hr) it was 11.5 µM; in series [3], greater than 50 µM. In addition, the “LDH: Cytotoxicity assay % Effect” value in the series on HCT116 cells amounted to 6.049%.
Turning to `CC(=O)N[C@H](C(=O)N[C@@H](CO)C(=O)N[C@@H](Cc1ccccc1)C(=O)N[C@]1(C)CCCC=CCCC[C@](C)(C(=O)N[C@@H](CC(C)C)C(=O)N[C@@H](CC(C)C)C(=O)N2CCC[C@H]2C(=O)N[C@@H](CCC(N)=O)C(=O)N[C@@H](CC(N)=O)C(=O)N[C@@H](Cc2ccccc2)C(N)=O)NC(=O)[C@H](Cc2c[nH]c3ccccc23)NC(=O)[C@H](Cc2ccc(O)cc2)NC(=O)[C@H](CCC(=O)O)NC1=O)[C@@H](C)O` [MP-1173] (Ac-TSF[R5]EYW[R5]LLPQNF-NH2; staple 4-8), in series [1] (0% FBS 4Hr), the “TETCHO: Counterscreen % Effect” value turned out to be 47.5%. Besides, the EC50 in series [1] (0% FBS 4Hr) was 28.3 µM; in series [2] (0% FBS 4Hr), 12.5 µM; in series [3], greater than 50 µM. In addition, the “LDH: Cytotoxicity assay % Effect” value in the series on HCT116 cells is listed as 16.65%.
`CC(=O)N[C@@H](CCCCN)C(=O)N[C@@H](CCCCN)C(=O)NCCCCCC(=O)N[C@H](C(=O)N[C@@H](CO)C(=O)N[C@@H](Cc1ccccc1)C(=O)N[C@]1(C)CCCCCCC=CCCC[C@@](C)(C(=O)N[C@@H](CCC(=O)O)C(=O)N[C@@H](CC(N)=O)C(=O)N[C@@H](Cc2ccccc2)C(N)=O)NC(=O)[C@H](CC(C)C)NC(=O)[C@H](CC(C)C)NC(=O)[C@H](C)NC(=O)[C@H](Cc2c[nH]c3ccccc23)NC(=O)[C@H](Cc2ccc(O)cc2)NC(=O)[C@H](CCC(=O)O)NC1=O)[C@@H](C)O` [MP-5363] (Ac-KK[Ahx]TSF[R8]EYWALL[S5]ENF-NH2; staple 7-14): the “TETCHO: Counterscreen % Effect” value came out at 48.32% in series [1] (0% FBS 4Hr) and 4.17% in series [1] (0% FBS 16Hr). The EC50 in series [1] (0% FBS 4Hr) is greater than 50 µM; in series [2] (0% FBS 4Hr), 3.42 µM; in series [2] (0% FBS 16Hr), 3.25 µM.
In the case of `CC(=O)N[C@H](C(=O)N[C@@H](CO)C(=O)N[C@@H](Cc1ccc2ccccc2c1)C(=O)NC(C)(C)C(=O)N[C@@H](CCC(=O)O)C(=O)N[C@@H](Cc1ccc(O)cc1)C(=O)N[C@@H](Cc1c[nH]c2ccccc12)C(=O)N[C@@H](C)C(=O)N[C@@H](CC(C)C)C(=O)N[C@@H](CC(C)C)C(=O)NC(C)(C)C(N)=O)[C@@H](C)O` [MP-161] (Ac-TS[2Nal][Aib]EYWALL[Aib]-NH2), in series [1] (0% FBS 4Hr), the “TETCHO: Counterscreen % Effect” value was 26.11%. Besides, the EC50 in series [1] (0% FBS 4Hr) was 19.4 µM; in series [2] (0% FBS 4Hr), 6.65 µM; in series [3] it was greater than 50 µM. Further, the “LDH: Cytotoxicity assay % Effect” value in the series with HCT116 cells is -0.5798%.
Taken in the same sequence, the figures for `CC(=O)N[C@H](C(=O)N[C@@H](CO)C(=O)N[C@@H](Cc1ccccc1)C(=O)N[C@@H]1CCCCCCC=CCCC[C@@H](C(N)=O)NC(=O)[C@H](CC(C)(C)C)NC(=O)[C@H](CC(C)C)NC(=O)[C@H](C)NC(=O)[C@H](Cc2c[nH]c3ccccc23)NC(=O)[C@H](Cc2ccc(O)cc2)NC(=O)[C@H](CCC(=O)O)NC1=O)[C@@H](C)O` [MP-150] (Ac-TSF[dR8(desαMe)]EYWAL[tBuAla][Nle(6-ylidene)]-NH2; staple 4-11) were -3.542%, greater than 50 µM, 22.3 µM, greater than 50 µM and -0.7157%.
With `CC(=O)N[C@@H](CCCCN)C(=O)NCCCCCC(=O)N[C@H](C(=O)N[C@@H](CO)C(=O)N[C@@H](Cc1ccccc1)C(=O)N[C@]1(C)CCCCCCC=CCCC[C@@](C)(C(=O)N[C@@H](CCC(=O)O)C(=O)N[C@@H](CC(N)=O)C(=O)N[C@@H](Cc2ccccc2)C(N)=O)NC(=O)[C@H](CC(C)C)NC(=O)[C@H](CC(C)C)NC(=O)[C@H](C)NC(=O)[C@H](Cc2c[nH]c3ccccc23)NC(=O)[C@H](Cc2ccc(O)cc2)NC(=O)[C@H](CCC(=O)O)NC1=O)[C@@H](C)O` [MP-5365], the “TETCHO: Counterscreen % Effect” value in series [1] (0% FBS 4Hr) is 4.41%; in series [1] (0% FBS 16Hr), 1.46%. Moreover, the EC50 in series [1] (0% FBS 4Hr) was greater than 50 µM; in series [2] (0% FBS 4Hr) it was 3.58 µM; in series [2] (0% FBS 16Hr), 2.2 µM.
